US20040073007A1, “Antiangiogenic peptides” (priority 2001, published 2004)
Ends that are not written are not given here. * marks the point of attachment. Acm = CC(=O)NC*

Legend:
[1] = system: EA.hy.926 cells; assay: DNA synthesis (tritiated thymidine incorporation) in EA.hy.926 cells stimulated with 10% FBS; assay type: cell-based, human; conditions: 24 hours, starting from the concentration of 10^−12 M
Method: Endothelial human cells EA.hy.926 were grown in DMEM supplemented with 10% fetal bovine serum (FBS) and with the appropriate concentrations of glutamine and antibiotics. Before the experiments, the cells had been deprived of serum for 24 hours in 0.1% FBS. EA.hy.926 cells were inoculated in 96 well-plates and, after being deprived of serum for 24 hours, were 'stimulated with 10% FBS in the presence or in the absence of different concentrations of the peptide 6-49 or of endostatin for further 24 hours. Tritiated tymidine (1 μCi/well) was added during the last 6 hours of incubation. The cells were then extracted in 10% TCA and the radioactivity incorporated in the TCA-insoluble fraction was determined after solubilization in 0.5 M NaOH. The results, reported in FIGS. 3a and 3b, are expressed as the percentage of the maximal stimulation induced by 10% serum in the absence of the drug.

[2] = system: endothelial cells; assay: Tubules formation by endothelial cells on Matrigel; assay type: cell-based; conditions: endothelial cells on Matrigel with FGF or VEGF; area quantified by NIH Image
Method: The formation of tubular structures, similar to capillaries, was evaluated by seeding the endothelial cells on a Matrigel carrier, a re-constructed basal membrane, with the characteristic of being liquid at 4° C. and of undergoing polymerization at 37° C. forming a tri-dimensional gel. Proangiogenic factors, such as Fibroblast Growth Factor (FGF) or Vascular Endothelial Growth Factor (VEGF), were added to the medium in the presence of the peptide 9-49 and the plate's were incubated at 37° C. under 5% CO2 atmosphere. Tubules formation was monitored observing the cells with an inverted microscope and, after recording the image by means of photography, a quantification was performed by evaluating the area occupied by the cells and by the capillaries network. Upon observation under the microscope, it is evident that the peptide of invention is able to inhibit the capacity of endothelial cells to form tubular structures similar to capillaries, which on the contrary are clearly evident in the untreated control cells (FIG. 4A). In FIG. 4B, a quantitative analysis of the effect, carried out by a proper software (NIH Image), is reported.

[3] = system: EA.hy.926 cells; assay: EA.hy.926 cell migration, chemotaxis test in Boyden chamber; assay type: cell-based, human; conditions: glioma conditioned medium as chemotactic stimulus, 4 hours, at/starting from 10^−9 M
Method: Endothelial human cells EA.hy.926 were grown in DMEM supplemented with 10% fetal bovine serum (FBS) and with the appropriate concentrations of glutamine and antibiotics. Before the experiments, the cells had been deprived of serum for 24 hours in 0.1% FBS. EA.hy.926 cells migration has been evaluated by chemotaxis test in a 48 well Boyden chamber using polycarbonate filters of 12 μm porosity pre-treated with a 10 μg/ml type I collagen solution. […] The chemotactic stimulus, represented by a conditioned medium obtained by a culture of glioma cells, was added to the lower chamber. After 4 hours of incubation at 37° C., non migrated cells were removed by a scraper and the filter was colored with Diff Quick. Migrated cells were then counted at a 400×magnification in 6 different fields. The results, reported in FIG. 2, are expressed as a percentage of the maximal migration induced by the conditioned medium in the presence of the peptide or of endostatin.

[4] = system: male mice C57/b16; assay: Matrigel pellet s.c. in mice, hemoglobin amount (Drabkin's method); assay type: in vivo; conditions: Matrigel with FGF 2 ng/ml and heparin 36 U/ml s.c., 4 days; dose of 1 mg/mouse; compared with controls
Method: […] of Matrigel containing FGF 2 ng/ml and heparin 36 U/ml were inoculated s.c. in the abdominal region of male mice C57/b16, of age from 6 to 10 weeks. […] Six animals were used in each experiment. After 4 days, the gelatinized Matrigel pellet was recovered and the amount of hemoglobin therein was measured by means of a commercial kit based on Drabkin's method ([…] Aldrich).

FQPVLHLVALNSPLSGGMRGIRGADFQC(Acm)FQQARAVGLAGTFRAF [Peptide 6-49, tetratetracontapeptide]
maximal inhibition of DNA synthesis [1]: about 80%
tubules formation compared with controls, considered as 100% [2]: 23%
maximal inhibition of cell migration [3]: about 60%
hemoglobin levels in the Matrigel pellets [4]: capable of reducing hemoglobin levels
